Source: patent US20170157301A1, “LEOLIGIN DERIVATIVES AS SMOOTH MUSCLE CELL PROLIFERATION INHIBITORS” (TECHNISCHE UNIVERSITAET WIEN, priority 2014, published 2017)

test system: SMCs in relation to ECs; experiment: activity ratio: efficiency towards SMCs / efficiency towards ECs; format: cell-based; conditions: activity ratio class; order in Table 1 follows the calculated values
Description: For determination of vascular SMC proliferation, 0.5×10^4 viable rat aortic SMCs per well were seeded in SMC growth medium (DMEM/F12 medium with 20% serum, 30 μg/mL Gentamicin and 15 ng/mL Amphotericin) in 96-well plates. 24 h later, the medium was removed, the cells were washed once with SMC starvation medium (DMEM/F12 medium with 0.1% serum, 0.2% BSA, 30 μg/mL Gentamicin and 15 ng/mL Amphotericin) and incubated in starvation medium for further 24 h.
The quiescent cells were then pretreated for 30 min with the test compounds and induced to proliferate with 20 ng/mL platelet-derived growth factor (PDGF). Unstimulated cells were utilized for normalization and estimation of the basal level of proliferation. The final concentration of the solvent vehicle, dimethyl sulfoxide (DMSO), was the same (0.1%) in all wells. 48 h later, the SMC proliferation was quantified by resazurin dye conversion for 2 h as previously described (H. Joa et al., J. Nat. Prod. 74(6), 1513-6 (2011)).
For determination of endothelial cell proliferation, 0.5×10^4 HUVECtert immortalized human umbilical vein endothelial cells (H. B. Schiller et al., Mol. Biol. Cell. 20(3), 745-756 (2009)) were seeded in 96-well plates for 24 h in HUVEC Complete Medium (EBM™ growth medium supplemented with 10% fetal bovine serum, EBM™ SingleQuots (Lonza, Basel, Switzerland), 100 U/mL benzylpenicillin, 100 μg/mL streptomycin, and 1% amphotericin). Afterwards, the medium was exchanged with fresh HUVEC Complete Medium and cells were treated with the indicated compounds for 48 h. After the end of the incubation period, the medium was removed, the cells were washed once with 200 μL/well PBS, and treated with 150 μL HUVEC Complete Medium containing 10 μg/mL resazurin. 2 h later, the fluorescence was measured at a wavelength of 580 nm, with excitation wavelength 535 nm in a 96-well plate reader (Tecan GENios Pro; Tecan Group Ltd., Mannedorf, Switzerland).
In every case, the percentage of viable cells was subtracted from 1, in order to obtain a measure of efficiency of the test compounds towards each particular type of cells, and subsequently, the efficiency quotient towards SMCs and ECs was calculated and taken as the “activity ratio” and thus as a measure of selective efficiency of each test compound towards SMCs in relation to ECs. For example, the synthetic Leoligin with the bio ID 2418 prepared in Comparative Example 27 as compound 10-22 gave the following results:
Due to the usual fluctuations in determining surviving cells, which amount to approximately ±10%, and due to the relatively strong resulting fluctuations in calculating quotients—especially if the inhibitory effect of said novel compounds towards ECs is very poor—said threshold value of 1.50 for the activity ratio, as already mentioned above, was introduced.
In the following, a table listing every compound prepared in examples and comparative Examples for which an activity ratio (a.r.) of >1.0 was determined, is given.

| SMILES | a.r. code |
| --- | --- |
| COc1ccc([C@H]2OC[C@H](Cc3cccc4ccccc34)[C@@H]2CO)cc1OC [Example 3, ((2S,3R,4R)-2-(3,4-dimethoxyphenyl)-4-(naphthalen-1-ylmethyl)tetrahydro-furan-3-yl)methanol] | AA (a.r. ≧ 2.0) |
| COc1ccc([C@H]2OC[C@H](Cc3ccc(C(F)(F)F)cc3)[C@@H]2CO)cc1OC [Example 4, ((2S,3R,4R)-2-(3,4-dimethoxyphenyl)-4-(4-(trifluoromethyl)benzyl)tetrahydro-furan-3-yl)methanol] | A (a.r. ≧ 1.50) |
| CCCCc1ccc(C[C@H]2CO[C@H](c3ccc(OC)c(OC)c3)[C@H]2CO)cc1 [Example 5, ((2S,3R,4R)-4-(4-butylbenzyl)-2-(3,4-dimethoxyphenyl)tetrahydrofuran-3-yl)-methanol] | AA (a.r. ≧ 2.0) |
| COc1ccc([C@H]2OC[C@H](Cc3ccc(C(C)(F)F)cc3)[C@@H]2CO)cc1OC [Example 6, ((2S,3R,4R)-4-(4-(1,1-difluoroethyl)benzyl)-2-(3,4-dimethoxyphenyl)tetrahydro-furan-3-yl)methanol] | AA (a.r. ≧ 2.0) |
| COc1cc([C@H]2OC[C@H](Cc3ccccc3)[C@@H]2CO)cc(OC)c1OC [Example 7, ((2S,3R,4R)-4-benzyl-2-(3,4,5-trimethoxyphenyl)tetrahydrofuran-3-yl)methanol] | AAA (a.r. ≧ 5.0) |
| COc1cc([C@H]2OC[C@H](Cc3ccc(C(F)(F)F)cc3)[C@@H]2CO)cc(OC)c1OC [Example 8, ((2S,3R,4R)-4-(4-(trifluoromethyl)benzyl)-2-(3,4,5-trimethoxyphenyl)tetrahydro-furan-3-yl)methanol] | AAA (a.r. ≧ 5.0) |
| COc1cc([C@H]2OC[C@H](Cc3ccc(-c4ccccc4)cc3)[C@@H]2CO)cc(OC)c1OC [Example 9, ((2S,3R,4R)-4-([1,1′-biphenyl]-4-ylmethyl)-2-(3,4,5-trimethoxyphenyl)-tetrahydrofuran-3-yl)methanol] | AA (a.r. ≧ 2.0) |
| C/C=C(/C)C(=O)OC[C@H]1[C@@H](Cc2ccc(C(C)(C)C)cc2)CO[C@@H]1c1ccc(OC)c(OC)c1 [Example 10, (Z)-((2S,3R,4R)-4-(4-(tert-butyl)benzyl)-2-(3,4-dimethoxyphenyl)tetrahydro-furan-3-yl)methyl 2-methylbut-2-enoate] | AA (a.r. ≧ 2.0) |
| C/C=C(/C)C(=O)OC[C@H]1[C@@H](Cc2ccc(C(=O)OCC)cc2)CO[C@@H]1c1ccc(OC)c(OC)c1 [Example 11, ethyl 4-(((3R,4R,5S)-5-(3,4-dimethoxyphenyl)-4-((((Z)-2-methylbut-2-enoyl)-oxy)methyl)tetrahydrofuran-3-yl)methyl)benzoate] | A (a.r. ≧ 1.50) |
| C/C=C(/C)C(=O)OC[C@H]1[C@@H](Cc2ccccn2)CO[C@@H]1c1ccc(OC)c(OC)c1 [Example 12, (Z)-((2S,3R,4R)-2-(3,4-dimethoxyphenyl)-4-(pyridin-2-ylmethyl)tetrahydro-furan-3-yl)methyl 2-methylbut-2-enoate] | AAA (a.r. ≧ 5.0) |
| C/C=C(/C)C(=O)OC[C@H]1[C@@H](Cc2ccc(CCCC)cc2)CO[C@@H]1c1ccc(OC)c(OC)c1 [Example 13, (Z)-((2S,3R,4R)-4-(4-butylbenzyl)-2-(3,4-dimethoxyphenyl)tetrahydrofuran-3-yl)methyl 2-methylbut-2-enoate] | AAA (a.r. ≧ 5.0) |
| C/C=C(/C)C(=O)OC[C@H]1[C@@H](Cc2ccc(C(C)(F)F)cc2)CO[C@@H]1c1ccc(OC)c(OC)c1 [Example 14, (Z)-((2S,3R,4R)-4-(4-(1,1-difluoroethyl)benzyl)-2-(3,4-dimethoxyphenyl)tetra-hydrofuran-3-yl)methyl 2-methylbut-2-enoate] | A (a.r. ≧ 1.50) |
| C/C=C(/C)C(=O)OC[C@H]1[C@@H](Cc2ccc(C(F)(F)F)cc2)CO[C@@H]1c1ccc(F)cc1 [Example 15, (Z)-((2S,3R,4R)-2-(4-fluorophenyl)-4-(4-(trifluoromethyl)benzyl)tetrahydro-furan-3-yl)methyl 2-methylbut-2-enoate] | AAA (a.r. ≧ 5.0) |
| C/C=C(/C)C(=O)OC[C@H]1[C@@H](Cc2ccc(C(F)(F)F)cc2)CO[C@@H]1c1ccccc1 [Example 16, (Z)-((2S,3R,4R)-2-phenyl-4-(4-(trifluoromethyl)benzyl)tetrahydrofuran-3-yl)-methyl 2-methylbut-2-enoate] | AAA (a.r. ≧ 5.0) |
| C/C=C(/C)C(=O)OC[C@H]1[C@@H](Cc2ccc(F)cc2)CO[C@@H]1c1ccc(F)cc1 [Example 17, (Z)-((2S,3R,4R)-4-(4-fluorobenzyl)-2-(4-fluorophenyl)tetrahydrofuran-3-yl)-methyl 2-methylbut-2-enoate] | AAA (a.r. ≧ 5.0) |
| C/C=C(/C)C(=O)OC[C@H]1[C@@H](Cc2ccc(C(C)(C)C)cc2)CO[C@@H]1c1ccc(F)cc1 [Example 18, (Z)-((2S,3R,4R)-4-(4-(tert-butyl)benzyl)-2-(4-fluorophenyl)tetrahydrofuran-3-yl)methyl 2-methylbut-2-enoate] | AAA (a.r. ≧ 5.0) |
| COc1ccc(C[C@H]2CO[C@H](c3cc(OC)c(OC)c(OC)c3)[C@H]2COC(=O)C=C(C)C)cc1OC [Example 19, ((2S,3R,4R)-4-(3,4-dimethoxybenzyl)-2-(3,4,5-trimethoxyphenyl)tetrahydro-furan-3-yl)methyl 3-methylbut-2-enoate] | AAA (a.r. ≧ 5.0) |
| C/C=C(/C)C(=O)OC[C@H]1[C@@H](Cc2ccc(C(C)(C)C)cc2)CO[C@@H]1c1cc(OC)c(OC)c(OC)c1 [Example 20, (Z)-((2S,3R,4R)-4-(4-(tert-butyl)benzyl)-2-(3,4,5-trimethoxyphenyl)tetrahydro-furan-3-yl)methyl 2-methylbut-2-enoate] | AA (a.r. ≧ 2.0) |
| C/C=C(/C)C(=O)OC[C@H]1[C@@H](Cc2ccc(C(C)=O)cc2)CO[C@@H]1c1cc(OC)c(OC)c(OC)c1 [Example 21, (Z)-((2S,3R,4R)-4-(4-acetylbenzyl)-2-(3,4,5-trimethoxyphenyl)tetrahydrofuran-3-yl)methyl 2-methylbut-2-enoate] | AA (a.r. ≧ 2.0) |
| C/C=C(/C)C(=O)OC[C@H]1[C@@H](Cc2ccc(C(=O)OCC)cc2)CO[C@@H]1c1cc(OC)c(OC)c(OC)c1 [Example 22, ethyl 4-(((3R,4R,5S)-4-((((Z)-2-methylbut-2-enoyl)oxy)methyl)-5-(3,4,5-trimethoxyphenyl)tetrahydrofuran-3-yl)methyl)benzoate] | AA (a.r. ≧ 2.0) |
| C/C=C/C(=O)OC[C@H]1[C@@H](Cc2ccc(OC)c(OC)c2)CO[C@@H]1c1ccc(OC)c(OC)c1 [Example 23, (E)-((2S,3R,4R)-4-(3,4-dimethoxybenzyl)-2-(3,4-dimethoxyphenyl)tetrahydro-furan-3-yl)methyl but-2-enoate] | AA (a.r. ≧ 2.0) |
| COc1ccc(C[C@H]2CO[C@H](c3ccc(OC)c(OC)c3)[C@H]2COC(=O)/C=C/c2ccccc2)cc1OC [Example 24, ((2S,3R,4R)-4-(3,4-dimethoxybenzyl)-2-(3,4-dimethoxyphenyl)tetrahydrofuran-3-yl)methyl cinnamate] | AA (a.r. ≧ 2.0) |
| COc1ccc(C[C@H]2CO[C@H](c3ccc(OC)c(OC)c3)[C@H]2COC(=O)C=C(C)C)cc1OC [Example 25, ((2S,3R,4R)-4-(3,4-dimethoxybenzyl)-2-(3,4-dimethoxyphenyl)tetrahydrofuran-3-yl)methyl 3-methylbut-2-enoate] | AA (a.r. ≧ 2.0) |
| COc1ccc(C[C@H]2CO[C@H](c3ccccc3)[C@H]2COC(=O)C2CCCC2)cc1OC [Example 26, ((2S,3R,4R)-4-(3,4-dimethoxybenzyl)-2-phenyltetrahydrofuran-3-yl)methyl cyclopentanecarboxylate] | A (a.r. ≧ 1.50) |
| COc1ccc(C[C@H]2CO[C@H](c3ccc(OC)c(OC)c3)[C@H]2COC(=O)CC23CC4CC(CC(C4)C2)C3)cc1OC [Example 27, ((2S,3R,4R)-4-(3,4-dimethoxybenzyl)-2-(3,4-dimethoxyphenyl)tetrahydrofuran-3-yl) methyl 2-(adamantan-1-yl)acetate] | AA (a.r. ≧ 2.0) |
| COc1ccc(C[C@H]2CO[C@H](c3ccccc3)[C@H]2COC(=O)C2CCCCC2)cc1OC [Example 28, ((2S,3R,4R)-4-(3,4-dimethoxybenzyl)-2-phenyltetrahydrofuran-3-yl)methyl cyclohexanecarboxylate] | A (a.r. ≧ 1.50) |
